The source of these data is BindingDB's records for doi:10.1016/s0960-894x(03)00677-2 (Pharmacor, 2003).

The structures appear in SMILES notation. pIC50: −log10 of the molar value.

In the experiment the target is T1, Dimer of Gag-Pol polyprotein [501-599] (Human immunodeficiency virus 1, UniProt P03367).
T1 construct: 501-599
Description: Protease Inhibition Assay. The settings on record: pH 4.7; 30 °C. As for the experimental part: HIV-1 protease activity was measured by a continuous fluorometric assay using the internally quenched fluorogenic substrate DABCYL-Ser-Gln-Asn-Tyr-Pro-Ile-Val-Gln-EDANS. The proteolytic activity can be monitored by the increase in fluorescence intensity, and the protease products were analyzed by HPLC.
What is called pIC50 is the negative decadic logarithm of the IC50, by convention in mol/L. For `O[C@H]([C@H](O)[C@@H](COCc1ccccc1)OCc1ccccc1)[C@@H](COCc1ccccc1)OCc1ccccc1` [(2R,3R,4S,5R)-1,2,5,6-tetrakis(benzyloxy)hexane-3,4-diol], the pIC50 is below 4.30.

The compound `O[C@H]([C@H](O)[C@H](COCc1ccccc1)OCc1ccccc1)[C@@H](COCc1ccccc1)OCc1ccccc1` [(2R,3R,4S,5S)-1,2,5,6-tetrakis(benzyloxy)hexane-3,4-diol] gave a negative logarithm of the IC50 (pIC50) below 4.30.

`O[C@@H]([C@H](O)[C@@H](COc1ccccc1)OCc1ccccc1)[C@@H](COc1ccccc1)OCc1ccccc1` [(2R,3S,4S,5R)-2,5-bis(benzyloxy)-1,6-diphenoxyhexane-3,4-diol] showed a negative-log IC50 (pIC50) below 4.30.

For `O[C@@H]([C@H](O)[C@@H](Cc1ccccc1)OCc1ccccc1)[C@@H](Cc1ccccc1)OCc1ccccc1` [(2R,3S,4S,5R)-2,5-bis(benzyloxy)-1,6-diphenylhexane-3,4-diol], the negative-log IC50 (pIC50) is below 4.30.

In turn, `O[C@@H]([C@H](O)[C@@H](COCc1ccccc1)OCc1ccccc1)[C@H](COCc1ccccc1)OCc1ccccc1` [(2R,3S,4S,5S)-1,2,5,6-tetrakis(benzyloxy)hexane-3,4-diol] gave a negative logarithm of the IC50 (pIC50) below 4.30.

On to `O[C@@H](C[C@@H](COCc1ccccc1)OCc1ccccc1)[C@@H](COCc1ccccc1)OCc1ccccc1` [(2R,3S,5S)-1,2,5,6-tetrakis(benzyloxy)hexan-3-ol], for which the negative-log IC50 (pIC50) is below 4.30.

`O[C@H]([C@@H](O)[C@H](COCc1ccccc1)OCc1ccccc1)[C@H](COCc1ccccc1)OCc1ccccc1` [(2S,3R,4R,5S)-1,2,5,6-tetrakis(benzyloxy)hexane-3,4-diol] showed a pIC50 below 4.30.
